Laboratory results published in ChEMBL document CHEMBL5209583, “pH biosensor based assay for SLC9B2 using HEK-293 SLC9B2 OE cells” (2022).

Biological target: T1, Sodium/hydrogen exchanger 9B2 (Homo sapiens, UniProt Q86UD5)
T1 sequence (Q86UD5 whole entry): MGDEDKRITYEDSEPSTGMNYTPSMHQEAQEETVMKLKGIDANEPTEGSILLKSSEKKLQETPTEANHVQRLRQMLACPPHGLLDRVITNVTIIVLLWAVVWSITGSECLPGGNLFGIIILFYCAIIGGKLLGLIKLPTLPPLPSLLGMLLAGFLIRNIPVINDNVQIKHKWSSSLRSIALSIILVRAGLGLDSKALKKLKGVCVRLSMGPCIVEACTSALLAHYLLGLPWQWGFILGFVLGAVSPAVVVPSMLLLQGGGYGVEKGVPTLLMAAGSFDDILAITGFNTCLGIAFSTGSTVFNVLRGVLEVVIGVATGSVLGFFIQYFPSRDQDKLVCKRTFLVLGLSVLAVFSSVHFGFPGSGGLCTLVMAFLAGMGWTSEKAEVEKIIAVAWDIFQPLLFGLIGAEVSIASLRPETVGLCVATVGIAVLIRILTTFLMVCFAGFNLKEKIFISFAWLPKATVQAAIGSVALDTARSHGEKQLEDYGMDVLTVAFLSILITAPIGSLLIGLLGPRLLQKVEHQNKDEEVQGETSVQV
Experiment: Inhibition of the Sodium/Hydrogen Exchanger-Like Domain-Containing Protein 2 (NHA2, SLC9B2) as assessed by a sensor pH-sensitive genetically encoded fluorescent sensor (pHAxensor) in HEK-293 cells stably transfected with SLC9B2 (PubChem AID: 1794821)
Format: functional, cell-based, HEK293

IC50: 90 µM
Compound: O=C(CCc1ccc(O)cc1)c1c(O)cc(O)cc1O [PHLORETIN]
